90 compounds from a melting point compilation (Tetko et al.; mined from patent text by program, amines drawn as free bases though some values may be those of a salt) can be followed below.

By melting point is commonly meant the temperature, or range, at which the solid turns liquid.

In turn, `COC1([N+](=O)[O-])C=C([N+](=O)[O-])C=CC1O` (stereo not given) had a melting point of 68 to 70 °C.
In turn, `COc1ccc(C=C2SC(=S)N(CC(=O)O)C2=O)cc1OCc1ccccc1` registered a melting point of 234 to 239 °C.
To `CN(C)CCOc1cc2c(Nc3ccc(F)c(Cl)c3)c(C#N)cnc2cn1` belongs 131 to 132 °C; to `CCCCCc1c(C(C)C)nc(C(C)C)c(CO)c1-c1ccccc1O`, 126 °C; to `Oc1ccc2c(c1)COc1c-2cc2ccc(O)cc2c1-c1ccco1`, 158 to 163 °C.
For `O=C(CN1CCC(Cc2ccc(F)cc2)CC1)Nc1cccc([N+](=O)[O-])c1`, the melting point lay in the range of 118 to 120 °C.
On to `COc1cc(C2NC(=O)C(C)S2)cc(OC)c1OC` (stereo not given), for which the melting point is 133 to 134 °C.
For `Cn1cc(C(F)(F)F)c(C(=O)O)n1`, the melting point lay within 174 to 175 °C.
To `C1CCN(ON2CCCC2)C1` belongs 99 °C; to `CCOC(=O)N1CCN(c2ccncc2[N+](=O)[O-])CC1`, 101 to 103 °C.
Turning to `CS(=O)(=O)Nn1c(=O)[nH]c2cc([N+](=O)[O-])c(-n3cccc3)cc2c1=O`, the melting point lay within 243 to 250 °C.
`COc1cc(OCc2cccnc2)ccc1/C=C/c1cc(/C=C/c2cccc3[nH]ccc23)n[nH]1` gave a melting point of 109 to 114 °C.
`CS(=O)(=O)Nc1cccc(N=C2NCCN2)c1` had a melting point of 229 to 230 °C.
To `COC(=O)c1oc2c(sc3ccccc32)c1OC` belongs 145 to 146 °C.
To `CCC1CN2C(C)=Nc3c(C)nn(C)c3C2=N1` (stereo not given) belongs 121 to 123 °C; to `Fc1ccc2nccc(Cl)c2c1`, 71 to 74 °C; to `CC1(C(=O)O)CCC(=O)c2cc(C3CCCCC3)c(Cl)cc21` (stereo not given), 227 to 228 °C.
Consider `CCN(CC)C(=O)Oc1c2c(nn1-c1ccc(F)cc1)CCc1cc(F)ccc1-2`, for which the melting point lay in the range of 141 to 142 °C.
For the compound `CS(=O)(=O)c1ccc(-n2nc(C(F)(F)F)cc2-c2ccc(-n3ccnc3)cc2)cc1`, the melting point lay within 183 to 184 °C.
In the case of `COc1ccc(CC(O)CO)c(OCc2ccccc2)c1` (stereo not given), the melting point lay in the range of 82 to 86 °C.
To `CCOC(=O)CC(=O)Nc1c(F)cccc1[N+](=O)[O-]` belongs 99 to 102 °C; to `COc1ccc2c(c1O)CCN(C=O)C2`, 172 to 174 °C.
As for `CC(=O)OC(=CC(=O)O)CC(=O)Nc1ccccc1`, the melting point is 125 to 126 °C.
Compound `CCOC(=O)c1onc(OCC)c1CN1C(=O)c2ccccc2C1=O` had a melting point of 93 to 94 °C.
With `Cc1c(NC(=O)c2ccc(-c3ccccc3)cc2)ccc2cc(CN3CCCC3)cnc12`, the melting point was in the range of 184 to 186 °C.
Turning to `Cc1cc(-c2cc(C(F)(F)F)n3ncc(C(=O)O)c3n2)ccc1Cl`, the melting point is 243 °C.
To `CSc1ncnn1C[C@]1(c2ccc(F)cc2F)O[C@@H]1c1ccccc1Cl` (relative stereo) belongs 116 to 117 °C.
`Cc1ccc(-c2nn(C(C)(C)C(=O)N(C)C)cc2C)c(Cl)c1` returned a melting point of 126 to 128 °C.
Turning to `CNC(=O)C(Cc1ccc(OC)cc1)NC(=O)C(CC(C)C)C(CC(=O)N1CCN(C)CC1)SC(C)=O` (stereo not given), the melting point is 133 to 138 °C.
Turning to `C=C(C)C(C(=O)OCC(Cl)(Cl)Cl)N1C(=O)C(NC(=O)Cc2ccccc2)C1SSc1nc2ccccc2s1` (stereo not given), the melting point lay within 133 to 134 °C.
The compound `CCC1COC(NC(=O)c2ccc(Cl)c(Cl)c2)C2CCCCN12` (stereo not given) gave a melting point of 214 °C.
Consider `O=C1c2ccccc2CN1C1CCN(CCC2c3ccccc3-c3ccccc32)CC1`, for which the melting point is 65 to 68 °C.
On to `Cc1cccc2nc(CCl)cn12`, for which the melting point lay in the range of 120 to 121 °C.
As for `Cc1ccc2c(c1)C(=O)CCC21CCC(=O)N(C)C1=O` (stereo not given), the melting point lay within 146 to 148 °C.
To `CCCn1c(=O)c2c(nc(C=Cc3cc(OC)c(OC)cc3S(=O)(=O)O)n2C)n(CCC)c1=O` belongs 192 to 194 °C; to `Cc1cccc2c1C=Cc1ccccc1C2(C)O` (stereo not given), 107 to 109 °C; to `CC(C)n1cnc2c(Nc3cccc(Cl)c3)nc(NCCN)nc21`, 55 to 56 °C.
In turn, `COc1cc2cc(CC(C)(C(N)=O)c3ccc(C#N)cc3)sc2cc1OC` (stereo not given) came in with a melting point of 178 to 180 °C.
To `COCC(O)c1nc2cc(Cl)ccc2c(O)c1C(=O)Nc1nccs1` (stereo not given) belongs > 270 °C.
Consider `O=S(=O)(Nc1ncnc(OCCO)c1-c1ccc(Cl)cc1)c1ccc(C(F)(F)F)cc1`, for which the melting point was 160 to 162 °C.
Turning to `COc1cc2c(cc1OS(N)(=O)=O)CCN(Cc1cccc(NS(C)(=O)=O)c1)C2`, the melting point was 151 to 152 °C.
To `COc1cc(CN2CCN(c3ccc(C(=O)NC4CC4)cc3Cl)CC2)cc2c1OC(C)C(=O)N2` (stereo not given) belongs 226 °C; to `O=C(NNc1nc2ccccc2n2cccc12)c1cc2ccccc2[nH]1`, 186 °C; to `Cc1ncccc1CC(=NC#N)NC(NC(=O)Cc1ccc2ncccc2c1)C(C)(C)C` (stereo not given), 132 to 134 °C.
To `Fc1ccccc1COc1nn(Cc2ccccc2F)c2ncccc12` belongs 57 to 58 °C.
Regarding `CNC(=O)NC1CC(N)(C(=O)O)C2C(C(=O)O)C12` (stereo not given), the melting point was > 275 °C.
For the compound `O=C(c1ccccc1)c1cc([N+](=O)[O-])ccc1-n1nc(CO)cc1CO`, the melting point lay in the range of 145 to 147 °C.
To `COc1ccc(S(=O)(=O)N(Cc2ccccc2)[C@H](CC(C)C)C(=O)NO)cc1` belongs 48 to 52 °C; to `CCOC(=O)C(C#N)c1cn(C(=O)OCC)c2cc(Cl)ccc12` (stereo not given), 126 to 128 °C; to `CCC1c2cccn2-c2ccc(F)cc2N1S(=O)(=O)c1cc(C)c(OC)c(C)c1` (stereo not given), 140 to 142 °C.
To `COc1ccc(C2Sc3cc(Oc4ccccc4)ccc3NC(=O)C2O)cc1Cl` (stereo not given) belongs 262 to 264 °C; to `Cc1nc(NCC(C)C)nc(N2CCc3ccccc3C2C)c1C` (stereo not given), 93 to 95 °C.
As to `Cc1cc([N+](=O)[O-])c(C)nc1OC(F)F`, the melting point lay within 48 to 49 °C.
In turn, `CCCCC(C)(C)C=CC(OC(C)=O)C1C(C)CC2OC(=O)CC21` (stereo not given) displayed a melting point of 83 to 83.5 °C.
With `NC(=O)CCc1ccc(F)cc1F`, the melting point was in the range of 107 to 108 °C.
The compound `Cc1c2n(c3ccccc13)C(=O)C(C(O)c1ncc[nH]1)CC2` (stereo not given) registered a melting point of 199 to 200 °C.
Take `Cc1ncn(-c2ccc(C(=O)N3Cc4cccn4Cc4ccccc43)c(Cl)c2)n1`: the melting point was 191 to 193 °C.
In turn, `CC(=O)ON(C(=O)NN(C)C)C1c2ccccc2Oc2ccccc21` showed a melting point of 120 to 121 °C.
As for `CC(C)N(Cc1nc(-c2ncn3c2CN(C)C(=O)c2c(Cl)cccc2-3)no1)C(C)C`, the melting point is 58 to 63 °C.
To `COc1ccc(C(=O)N2CC[C@@H](O)C2=O)cc1O` belongs 129 to 131 °C; to `COc1ccccc1Sc1c(Cl)ncnc1Cl`, 103 °C; to `CN1C(=O)OC(C)(C)c2cc(-c3cccc(Br)c3)ccc21`, 142 to 143 °C.
`CCOC(=O)c1cn(-c2ccc(F)cc2)nc1C` registered a melting point of 103 to 104 °C.
`Nc1ncc(Br)c(NCC2(CO)CCC2)n1` came in with a melting point of 156 to 158 °C.
As to `O=C1Cc2ccc(N3C(=O)C4=C(CCCC4)C3=O)cc2N1`, the melting point lay in the range of 225 to 226 °C.
For the compound `O=C(O)Cc1cc2c(c(C(=O)O)c1)NCCC2`, the melting point fell in the range of 210 to 211 °C.
Regarding `C=Cc1ccc(C(=O)OC)[nH]1`, the melting point fell in the range of 91 to 93 °C.
With `CC1CN(c2ncc(C(=O)N(c3cccc(C(F)(F)F)c3)C3CCCC3)c(N)n2)C(=O)N1` (stereo not given), the melting point lay in the range of 219 to 220 °C.
To `c1nc(Nc2ccc3[nH]ccc3c2)c2sc(-c3ccsc3)cc2n1` belongs 178 to 189 °C; to `Nc1nc(-c2ccc(CCCCCl)s2)cs1`, 99 to 100 °C; to `NS(=O)(=O)c1cc(S(N)(=O)=O)c(C(Cl)=C(Cl)Cl)cc1NCc1ccccc1`, 188 to 190 °C.
`O=c1c2c(Cc3ccccc3)n[nH]c2c2cccnc2n1-c1ccccc1`: the melting point was 305 to 308 °C.
As to `O=S(=O)(c1ccc(Cl)cc1)C1(c2cnccc2Cl)CCCCC1`, the melting point fell in the range of 145 to 147 °C.
For `O=S(=O)(c1ccc(O)c(Br)c1)N1c2ccc(Br)cc2-c2ccccc2C1c1ccccc1` (stereo not given), the melting point is 237 to 239 °C.
The compound `CC(C)(Sc1cccc(OCc2ccc(-c3ccc([N+](=O)[O-])cc3)o2)c1)C(=O)O` gave a melting point of 137 to 138 °C.
The compound `CCCN(CCN1CCN(c2ccccc2OC)CC1)C1CCc2ncsc2C1` (stereo not given) yielded a melting point of 136 °C.
`O=[N+]([O-])c1cccc(-c2csc(NS(=O)(=O)c3ccc(Cl)c(Cl)c3)n2)c1` gave a melting point of 189 to 191 °C.
To `O=C(c1ccc(Cl)cc1)c1sc2cc(O)ccc2c1-c1ccccc1` belongs 222 °C; to `CCCOc1nc2cccc(C(=O)OCC)c2n1Cc1ccc(-c2ccccc2C#N)cc1`, 90 to 92 °C.
On to `CCOc1ccc(-c2cncn2-c2ccc(S(=O)(=O)NC(C)(C)C)cc2)cc1`, for which the melting point turned out to be 215 °C.
Compound `O=C(O)CCCNC(=O)CCCNC(=O)c1cc(Br)no1` had a melting point of 157 to 158 °C.
For `NC(=O)CNC(=O)c1cccc(-c2cccc3cc(COc4cc(Cl)cc(Cl)c4)sc23)c1`, the melting point was in the range of 164 to 165 °C.
`N#Cc1ccc(C2CC(=O)N(CC3CC3)Cc3cncn32)cc1` (stereo not given) yielded a melting point of 178 to 180 °C.
Turning to `CCOC(=O)CCc1cccc(C(=O)c2cccc(C(=O)OCC)c2)c1C=CCCCCO`, the melting point fell in the range of 48 to 50 °C.
To `CC(C)(C)OC(=O)N[C@@H](COCc1ccccc1)C(=O)N[C@H](CCC(=O)OCc1ccccc1)C(N)=O` belongs 65 to 66 °C.
In turn, `Cc1cc(OCC(F)(F)F)c(NC(=O)CBr)c(OCC(F)(F)F)n1` gave a melting point of 153 to 154 °C.
Regarding `C#CCOc1cc(Oc2ccccc2C)ncn1`, the melting point stood at 64.8 °C.
To `Cc1cc(C(=O)O)cc2c1[nH]c1ccccc12` belongs > 240 °C.
`COc1ccc(C=C2OC(=O)c3ccccc32)cc1N` displayed a melting point of 148 to 153 °C.
Regarding `NS(=O)(=O)c1ccc(-c2noc(-c3cnn4c(C5CC5)cc(-c5ccc(Cl)cc5)nc34)n2)cc1`, the melting point is 260 °C.
